Test results taken from US12692249B2, “WDR5 inhibitors and modulators” (Vanderbilt University, priority 2019, dated 2026).
Like-named read-outs stand apart in the source and are kept apart here.

Columns and labels:
WDR5 = WDR5 (Homo sapiens, UniProt P61964); test: TR-FRET competition binding assay, displacement of 10mer-Thr-FAM MLL peptide probe from His-tagged WDR5; settings: WDR5-His tag (residues 24-334) 2 nM; 10mer-Thr-FAM 150 nM; 60 min, room temperature; read-out: Ki for Inhibition of WDR5 by TR-FRET assay
[1] = test system: MV4:11 human cancer cell lines; test: Cellular viability / anti-proliferative assay, CellTiter-Glo, 5 day protocol; format: cell-based; settings: Homo sapiens, MV4-11, 120 h, read-out: GI50 on cellular proliferation of MV4:11 human cancer cell lines
In short: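 Luminescent ATP-based viability (CellTiter-Glo) after a 5-day exposure gave GI50 via sigmoidal fitting, averaged over two or more replicates. Compounds spanned 22 two-fold steps down from 30 μM at 0.3% DMSO, on 200 MV-4-11 cells per well grown in IMDM plus 10% FBS.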

[2] = MV4:11 cells, 5 day incubation, CellTiter-Glo, mean of at least two replicates

Structure (SMILES)	Ki (WDR5) [nM]	GI50 [1, 2] [nM]	GI50 [1] [nM]
Cc1nccn1Cc1cc2c(c(-c3cn(C)nc3C(F)(F)F)c1)CCN(C1CCOc3ccc(Br)cc31)C2=O (stereo not drawn) [Example 61, 2-(6-Bromochroman-4-yl)-7-((2-methyl-1H-imidazol-1-yl)methyl)-5-(1-methyl-3-(trifluoromethyl)-1H-pyrazol-4-yl)-3,4-dihydroisoquinolin-1(2H)-one]	0.052	31	
COc1cc(C(=O)NC2CCN(C)CC2)c2nc(C)cc(N3CCc4c(cc(Cn5ccnc5)cc4-c4cn(C)nc4C(F)(F)F)C3=O)c2c1 [Example 189, 4-(7-((1H-Imidazol-1-yl)methyl)-5-(1-methyl-3-(trifluoromethyl)-1H-pyrazol-4-yl)-1-oxo-3,4-dihydroisoquinolin-2(1H)-yl)-6-methoxy-2-methyl-N-(1-methylpiperidin-4-yl)quinoline-8-carboxamide]	< 0.02	< 20	
Cc1nc2cccc(N3CCc4c(cc(Cn5ccnc5)cc4-c4cn(C)nc4C(F)(F)F)C3=O)c2o1 [Example 27, 7-((1H-Imidazol-1-yl)methyl)-5-(1-methyl-3-(trifluoromethyl)-1H-pyrazol-4-yl)-2-(2-methylbenzo[d]oxazol-7-yl)-3,4-dihydroisoquinolin-1(2H)-one]	4.6	> 30000	
COc1ccc2nccc(N3CCc4c(cc(Cn5ccnc5C)cc4-c4cn(C)nc4C(F)(F)F)C3=O)c2c1 [Example 4, 2-(6-Methoxyquinolin-4-yl)-7-((2-methyl-1H-imidazol-1-yl)methyl)-5-(1-methyl-3-(trifluoromethyl)-1H-pyrazol-4-yl)-3,4-dihydroisoquinolin-1(2H)-one]	< 0.02	< 20	
Cc1nccn1Cc1cc2c(c(-c3cn(C)nc3C(F)(F)F)c1)CCN(C1CCCc3ncccc31)C2=O (stereo not drawn) [Example 64, 7-((2-Methyl-1H-imidazol-1-yl)methyl)-5-(1-methyl-3-(trifluoromethyl)-1H-pyrazol-4-yl)-2-(5,6,7,8-tetrahydroquinolin-5-yl)-3,4-dihydroisoquinolin-1(2H)-one]	0.042	284	
COCCN1CCN(Cc2cc(OC)cc3c(N4CCc5c(cc(Cn6ccnc6)cc5-c5cn(C)nc5C(F)(F)F)C4=O)ccnc23)CC1 [Example 144, 7-((1H-Imidazol-1-yl)methyl)-2-(6-methoxy-8-((4-(2-methoxyethyl)piperazin-1-yl)methyl)quinolin-4-yl)-5-(1-methyl-3-(trifluoromethyl)-1H-pyrazol-4-yl)-3,4-dihydroisoquinolin-1(2H)-one]	0.047	< 20	
COc1ccc2c(=O)[nH]cc(N3CCc4c(cc(Cn5ccnc5)cc4-c4cn(C)nc4C(F)(F)F)C3=O)c2c1 [Example 98, 7-((1H-imidazol-1-yl)methyl)-6′-methoxy-5-(1-methyl-3-(trifluoromethyl)-1H-pyrazol-4-yl)-3,4-dihydro-1H-[2,4′-biisoquinoline]-1,1′(2′H)-dione]	0.059	163	
CCc1cc(C(=O)NCC2CN(C(=O)c3ccncc3)C2)c2nccc(N3CCc4c(cc(Cn5ccnc5)cc4-c4cn(C)nc4C(F)(F)F)C3=O)c2c1 [Example 219, 4-(7-((1H-Imidazol-1-yl)methyl)-5-(1-methyl-3-(trifluoromethyl)-1H-pyrazol-4-yl)-1-oxo-3,4-dihydroisoquinolin-2(1H)-yl)-6-ethyl-N-((1-isonicotinoylazetidin-3-yl)methyl)quinoline-8-carboxamide]	< 0.02	< 20	
Cc1nccn1Cc1cc2c(c(-c3cn(C)nc3C(F)(F)F)c1)CCN(c1cn(C)c3ncc(F)cc13)C2=O [Example 82, 2-(5-Fluoro-1-methyl-1H-pyrrolo[2,3-b]pyridin-3-yl)-7-((2-methyl-1H-imidazol-1-yl)methyl)-5-(1-methyl-3-(trifluoromethyl)-1H-pyrazol-4-yl)-3,4-dihydroisoquinolin-1(2H)-one]	0.061	384	
COc1cnc2cncc(N3CCc4c(cc(Cn5ccnc5)cc4-c4cn(C)nc4C(F)(F)F)C3=O)c2c1 [Example 214, 7-((1H-imidazol-1-yl)methyl)-2-(3-methoxy-1,7-naphthyridin-5-yl)-5-(1-methyl-3-(trifluoromethyl)-1H-pyrazol-4-yl)-3,4-dihydroisoquinolin-1(2H)-one]	< 0.02	< 20	
COc1cc(C2CCN(C)CC2)c2nc(C)cc(N3CCc4c(cc(Cn5ccnc5)cc4-c4cn(C)nc4C(F)(F)F)C3=O)c2c1 [Example 157, 7-((1H-Imidazol-1-yl)methyl)-2-(6-methoxy-2-methyl-8-(1-methylpiperidin-4-yl)quinolin-4-yl)-5-(1-methyl-3-(trifluoromethyl)-1H-pyrazol-4-yl)-3,4-dihydroisoquinolin-1(2H)-one]	< 0.02	< 20	
COc1cc(OC)c2c(c1)c(N1CCc3c(cc(Cn4ccnc4)cc3-c3cn(C)nc3C(F)(F)F)C1=O)cn2C [Example 85, 7-((1H-Imidazol-1-yl)methyl)-2-(5,7-dimethoxy-1-methyl-1H-indol-3-yl)-5-(1-methyl-3-(trifluoromethyl)-1H-pyrazol-4-yl)-3,4-dihydroisoquinolin-1(2H)-one]	< 0.02	92	
CCc1cc(C(=O)NCCNC(=O)c2cscn2)c2nccc(N3CCc4c(cc(Cn5ccnc5)cc4-c4cn(C)nc4C(F)(F)F)C3=O)c2c1 [Example 216, N-(2-(4-(7-((1H-Imidazol-1-yl)methyl)-5-(1-methyl-3-(trifluoromethyl)-1H-pyrazol-4-yl)-1-oxo-3,4-dihydroisoquinolin-2(1H)-yl)-6-ethylquinoline-8-carboxamido)ethyl)thiazole-4-carboxamide]	< 0.02	< 20	
COc1cc(N2CCOCC2)c2nccc(N3CCc4c(cc(Cn5ccnc5)cc4-c4cn(C)nc4C(F)(F)F)C3=O)c2c1 [Example 30, 7-((1H-Imidazol-1-yl)methyl)-2-(6-methoxy-8-morpholinoquinolin-4-yl)-5-(1-methyl-3-(trifluoromethyl)-1H-pyrazol-4-yl)-3,4-dihydroisoquinolin-1(2H)-one]	< 0.02	< 20	
COc1cc(Cn2ccnc2)c2nccc(N3CCc4c(cc(Cn5ccnc5)cc4-c4cn(C)nc4C(F)(F)F)C3=O)c2c1 [Example 139, 7-((1H-imidazol-1-yl)methyl)-2-(8-((1H-imidazol-1-yl)methyl)-6-methoxyquinolin-4-yl)-5-(1-methyl-3-(trifluoromethyl)-1H-pyrazol-4-yl)-3,4-dihydroisoquinolin-1(2H)-one]	< 0.02	< 20	
COc1ccc2c(OC)ncc(N3CCc4c(cc(Cn5ccnc5)cc4-c4cn(C)nc4C(F)(F)F)C3=O)c2c1 [Example 22, 7-((1H-imidazol-1-yl)methyl)-1′,6′-dimethoxy-5-(1-methyl-3-(trifluoromethyl)-1H-pyrazol-4-yl)-3,4-dihydro-1H-[2,4′-biisoquinolin]-one]	0.029	111	
COc1cc(CN2CCCCC2)c2nccc(N3CCc4c(cc(Cn5ccnc5)cc4-c4cn(C)nc4C(F)(F)F)C3=O)c2c1 [Example 128]	0.038		< 20
COc1ccc2ncnc(N3CCc4c(cc(Cn5ccnc5)cc4-c4cn(C)nc4C(F)(F)F)C3=O)c2c1 [Example 25, 7-((1H-Imidazol-1-yl)methyl)-2-(6-methoxyquinazolin-4-yl)-5-(1-methyl-3-(trifluoromethyl)-1H-pyrazol-4-yl)-3,4-dihydroisoquinolin-1(2)-one]	0.061	70	
COc1ccc2c(c1)C(N1CCc3c(cc(Cn4ccnc4)cc3-c3cn(C)nc3C(F)(F)F)C1=O)CCC2 (stereo not drawn) [Example 66, 7-((1H-Imidazol-1-yl)methyl)-2-(7-methoxy-1,2,3,4-tetrahydronaphthalen-1-yl)-5-(1-methyl-3-(trifluoromethyl)-1H-pyrazol-4-yl)-3,4-dihydroisoquinolin-1(2H)-one]	0.062	84	
CCc1nc2cccc(N3CCc4c(cc(Cn5ccnc5)cc4-c4cn(C)nc4C(F)(F)F)C3=O)c2cc1C [Example 119, 7-((1H-Imidazol-1-yl)methyl)-2-(2-ethyl-3-methylquinolin-5-yl)-5-(1-methyl-3-(trifluoromethyl)-1H-pyrazol-4-yl)-3,4-dihydroisoquinolin-1(2H)-one]	0.057	457	
Cn1cc(-c2cc(Cn3ccnc3)cc3c2CCN([C@H]2CCOc4ncc(Cl)cc42)C3=O)c(C(F)(F)F)n1 [Example 72]	< 0.02		< 20
COc1ccc2ccnc(N3CCc4c(cc(Cn5ccnc5C)cc4-c4cn(C)nc4C(F)(F)F)C3=O)c2c1 [Example 5, 7-Methoxy-7′-((2-methyl-1H-imidazol-1-yl)methyl)-5-(1-methyl-3-(trifluoromethyl)-1H-pyrazol-4-yl)-3′,4-dihydro-1′H-[1,2′-biisoquinolin]-1′-one]	0.034	83	
COc1cc(C(=O)NS(C)(=O)=O)c2nc(C)cc(N3CCc4c(cc(Cn5ccnc5)cc4-c4cn(C)nc4C(F)(F)F)C3=O)c2c1 [Example 181, 4-(7-((1H-Imidazol-1-yl)methyl)-5-(1-methyl-3-(trifluoromethyl)-1H-pyrazol-4-yl)-1-oxo-3,4-dihydroisoquinolin-2(1H)-yl)-6-methoxy-2-methyl-N-(methylsulfonyl)quinoline-8-carboxamide]	0.04	856	
COc1cc(-c2cn[nH]c2)c2nc(C)cc(N3CCc4c(cc(Cn5ccnc5)cc4-c4cn(C)nc4C(F)(F)F)C3=O)c2c1 [Example 201, 7-((1H-imidazol-1-yl)methyl)-2-(6-methoxy-2-methyl-8-(1H-pyrazol-4-yl)quinolin-4-yl)-5-(1-methyl-3-(trifluoromethyl)-1H-pyrazol-4-yl)-3,4-dihydroisoquinolin-1(2H)-one]	0.023	23	
